The text below walks through data of patent US20240327382A1 (ALMAC DISCOVERY LIMITED, priority 2021, published 2024).

Where only a bound is given, the exact number is not on record here.

The target in the experiment is T1, Full-length USP19 (Homo sapiens, UniProt O94966).
T1 construct: Full-length USP19 was purchased from Boston Biochem (E-576); purchased Boston Biochem E-576
T1 sequence (O94966 1-1318): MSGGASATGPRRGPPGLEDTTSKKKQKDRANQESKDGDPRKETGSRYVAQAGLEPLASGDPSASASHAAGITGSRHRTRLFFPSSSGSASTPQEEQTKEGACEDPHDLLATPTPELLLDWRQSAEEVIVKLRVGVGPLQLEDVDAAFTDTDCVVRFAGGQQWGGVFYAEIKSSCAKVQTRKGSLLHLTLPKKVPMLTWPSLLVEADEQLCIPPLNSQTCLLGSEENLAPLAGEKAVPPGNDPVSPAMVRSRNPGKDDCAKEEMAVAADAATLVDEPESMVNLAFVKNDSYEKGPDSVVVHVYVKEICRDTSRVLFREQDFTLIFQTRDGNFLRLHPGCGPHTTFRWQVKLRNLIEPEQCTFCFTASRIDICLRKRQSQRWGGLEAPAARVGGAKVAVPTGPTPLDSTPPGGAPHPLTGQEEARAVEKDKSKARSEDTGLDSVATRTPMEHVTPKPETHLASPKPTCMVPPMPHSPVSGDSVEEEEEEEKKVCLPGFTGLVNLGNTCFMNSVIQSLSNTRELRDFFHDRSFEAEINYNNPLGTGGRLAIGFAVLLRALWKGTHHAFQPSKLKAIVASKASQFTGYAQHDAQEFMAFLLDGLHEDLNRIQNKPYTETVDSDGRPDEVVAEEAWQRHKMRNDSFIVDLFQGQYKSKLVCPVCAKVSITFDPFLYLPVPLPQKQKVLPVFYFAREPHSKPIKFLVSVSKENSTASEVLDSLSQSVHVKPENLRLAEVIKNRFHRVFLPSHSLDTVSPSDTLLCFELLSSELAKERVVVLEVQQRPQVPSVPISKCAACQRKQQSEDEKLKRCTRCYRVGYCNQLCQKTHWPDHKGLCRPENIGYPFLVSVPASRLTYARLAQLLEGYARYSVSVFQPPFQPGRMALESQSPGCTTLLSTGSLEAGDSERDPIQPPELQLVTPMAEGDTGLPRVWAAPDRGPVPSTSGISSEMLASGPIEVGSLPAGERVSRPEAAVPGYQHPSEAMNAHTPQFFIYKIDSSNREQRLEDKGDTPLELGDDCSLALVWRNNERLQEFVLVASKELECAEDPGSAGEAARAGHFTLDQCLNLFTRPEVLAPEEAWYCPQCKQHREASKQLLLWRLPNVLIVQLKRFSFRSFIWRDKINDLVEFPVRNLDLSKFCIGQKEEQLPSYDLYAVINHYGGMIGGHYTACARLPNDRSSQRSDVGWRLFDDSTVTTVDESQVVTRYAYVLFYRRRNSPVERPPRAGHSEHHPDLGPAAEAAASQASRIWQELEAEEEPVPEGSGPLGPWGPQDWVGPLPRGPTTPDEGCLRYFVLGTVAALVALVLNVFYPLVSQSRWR
Description: USP19 fluorescence polarisation (FP) assay, Ubiquitin-Lys-TAMRA substrate. It is filed as biochemical. To be noted: average of at least two duplicate experiments. The protocol: USP19 activity was determined in a fluorescence polarisation (FP) homogeneous assay using the isopeptide Ubiquitin-Lys-TAMRA substrate (either AUB-101, Almac Sciences Scotland Limited, or U-558, Boston Biochem, both of which gave identical results). Full-length USP19 was purchased from Boston Biochem (E-576). Unless otherwise stated, all other reagents were purchased from Sigma. Enzymatic reactions were conducted in black flat bottom polystyrene 384-well plates (Nunc) and 30 μL total volume. USP19 (2.5 nM, 10 μL) was incubated in assay buffer (50 mM HEPES (pH 7.4), 150 mM NaCl, 5 mM DTT, 0.05% BSA (w/v), 0.05% CHAPS) in the presence or absence of inhibitor (10 μL). Inhibitors were stored as 10 mM DMSO stocks in an inert environment (low humidity, dark, low oxygen, rt) using the StoragePod® system (Roylan Developments) and serial dilutions were prepared in buffer just prior to the assay (from 200 μM to 2 μM, 8-18 data point curve). Following incubation at RT for 30 min, the enzymatic reactions were initiated by dispensing the Ub substrate (500 nM, 10 μL). FP was measured every 15 min over a period of 90 min (within the linear range of the assay) using a Synergy 4 plate reader (BioTek) exciting at 530 nm and measuring the amount of parallel and perpendicular light at 575 nm. The FP signal was subsequently normalised to the no compound control. Data were plotted and fitted, and the concentrations resulting in 50% inhibition (IC50) were calculated using the non-linear regression curve fitting model using GraphPad (Prism). IC50 values for the inhibitors of the invention are compiled in Tables 1 and 3 and represent the average of at least two duplicate experiments.
For orientation: In fluorescence polarisation assays a small probe gives low polarisation when free and higher when bound to something large.
Consider `CN[C@@H]1CCN(C(=O)N2CC[C@@H](Cn3cnc4ccc(F)cc4c3=O)C3(CCCC3)C2)[C@H](c2cc(F)ccc2F)C1` [Example 125, 3-(((R)-7-((2S,4R)-2-(2,5-Difluorophenyl)-4-(methylamino)piperidine-1-carbonyl)-7-azaspiro[4.5]decan-10-yl)methyl)-6-fluoroquinazolin-4(3H)-one], for which the IC50 (as a rule, the point on the concentration scale where inhibition reaches its midpoint) was below 10 nM.

For `N[C@@H]1CCN(C(=O)N2CCC(Cn3ccncc3=O)C3(CCCC3)C2)[C@H](c2ccccc2)C1` (stereo partly drawn) [Example 31, 1-((7-((2S,4R)-4-Amino-2-phenylpiperidine-1-carbonyl)-7-azaspiro[4.5]decan-10-yl)methyl)pyrazin-2(1H)-one], the IC50 was in the range of 10 to 100 nM.

As to `CCN[C@@H]1CCN(C(=O)N2CC[C@@H](Cn3ccc(Cl)cc3=O)C3(CCCC3)C2)[C@H](c2cc(F)ccc2F)C1` [Example 179, 4-Chloro-1-(((R)-7-((2S,4R)-2-(2,5-difluorophenyl)-4-(ethylamino)piperidine-1-carbonyl)-7-azaspiro[4.5]decan-10-yl)methyl)pyridin-2(1H)-one], the half-maximal inhibitory concentration (IC50) is below 10 nM.

In the case of `N[C@@H]1CCN(C(=O)N2CC[C@@H](Cn3ccc(-c4ccccc4F)cc3=O)C3(CCCC3)C2)[C@H](c2ccccc2)C1` [Example 61, 1-(((R)-7-((2S,4R)-4-Amino-2-phenylpiperidine-1-carbonyl)-7-azaspiro[4.5]decan-10-yl)methyl)-4-(2-fluorophenyl)pyridin-2(1H)-one], the 50% inhibitory concentration (IC50) is below 10 nM.

In the case of `Cc1ccn(CC2CCN(C(=O)N3CC[C@@H](N)C[C@H]3c3ccccc3)CC23CCCC3)c(=O)c1` (stereo partly drawn) [Example 39, 1-((7-((2S,4R)-4-Amino-2-phenylpiperidine-1-carbonyl)-7-azaspiro[4.5]decan-10-yl)methyl)-4-methylpyridin-2(1H)-one], the IC50 was in the range of 10 to 100 nM.

With `O=C1OCCN1[C@@H]1CCN(C(=O)N2CC[C@@H](Cn3cnc(-c4ccccc4)cc3=O)C3(CCCC3)C2)[C@H](c2cccc(F)c2)C1` [Example 197, 3-((2S,4R)-2-(3-Fluorophenyl)-1-((R)-10-((6-oxo-4-phenylpyrimidin-1(6H)-yl)methyl)-7-azaspiro[4.5]decane-7-carbonyl)piperidin-4-yl)oxazolidin-2-one], the IC50 is 10 to 100 nM.

Take `CCN[C@@H]1CCN(C(=O)N2CC[C@@H](Cn3ccc(-c4ccccc4)cc3=O)C3(CCCC3)C2)[C@H](c2cc(F)ccc2F)C1` [Example 180, 1-(((R)-7-((2S,4R)-2-(2,5-Difluorophenyl)-4-(ethylamino)piperidine-1-carbonyl)-7-azaspiro[4.5]decan-10-yl)methyl)-4-phenylpyridin-2(1H)-one]: the IC50 is below 10 nM.

For the molecule `Cc1ccccc1-c1cc(=O)n(C[C@@H]2CCN(C(=O)N3CC[C@@H](N)C[C@H]3c3ccccc3)CC23CCCC3)cn1` [Example 77, 3-(((R)-7-((2,4R)-4-Amino-2-phenylpiperidine-1-carbonyl)-7-azaspiro[4.5]decan-10-yl)methyl)-6-(o-tolyl)pyrimidin-4(3H)-one], the half-inhibitory concentration (IC50) was below 10 nM.

As to `N[C@@H]1CCN(C(=O)N2CCC(Cn3cnccc3=O)C3(CCCC3)C2)[C@H](c2ccccc2)C1` (stereo partly drawn) [Example 30, 3-((7-((2S,4R)-4-Amino-2-phenylpiperidine-1-carbonyl)-7-azaspiro[4.5]decan-10-yl)methyl) pyrimidin-4(3H)-one], the IC50 lay within 100 to 1000 nM.

Regarding `O=C(N1CC[C@@H](Cn2cnc3ccc(F)cc3c2=O)C2(CCCC2)C1)N1CC[C@@H](NCC(F)F)C[C@H]1c1cc(F)ccc1F` [Example 157, 3-(((R)-7-((2S,4R)-4-((2,2-Difluoroethyl)amino)-2-(2,5-difluorophenyl)piperidine-1-carbonyl)-7-azaspiro[4.5]decan-10-yl)methyl)-6-fluoroquinazolin-4(3H)-one], the IC50 was below 10 nM.

As for `O=C(N1CC[C@@H](Cn2cnc(-c3ccccc3)cc2=O)C2(CCCC2)C1)N1CCNC[C@H]1c1ccccc1` (single isomer, unassigned) [Example 14], the concentration for half-maximal inhibition (IC50) was below 10 nM.

For `COC(=O)[C@@H]1CCN(C(=O)N2CC[C@@H](Cn3cnc(-c4ccccc4)cc3=O)C3(CCCC3)C2)[C@H](c2ccccc2)C1` [Example 76], the IC50 lay in the range of 1000 to 20000 nM.

Consider `O=C(N1CCC(Cn2ccc(-c3ccccc3)cc2=O)CC1)N1CCNC[C@H]1c1ccccc1` [Example 6, (R)-4-Phenyl-1-((1-(2-phenylpiperazine-1-carbonyl)piperidin-4-yl)methyl)pyridin-2(1H)-one], for which the 50% inhibitory concentration (IC50) was 100 to 1000 nM.

On to `CN[C@@H]1CCN(C(=O)N2CC[C@@H](Cn3cnc(-c4ccccc4)cc3=O)C3(CCCC3)C2)[C@H](c2ccc(F)cc2F)C1` [Example 94, 3-(((R)-7-((2S,4R)-2-(2,4-Difluorophenyl)-4-(methylamino)piperidine-1-carbonyl)-7-azaspiro[4.5]decan-10-yl)methyl)-6-phenylpyrimidin-4(3H)-one], for which the concentration for half-maximal inhibition (IC50) is below 10 nM.

On to `N[C@@H]1CCN(C(=O)N2CCC(Cn3ccc(C(F)F)cc3=O)C3(CCCC3)C2)[C@H](c2ccccc2)C1` (stereo partly drawn) [Example 38, 1-((7-((2S,4R)-4-Amino-2-phenylpiperidine-1-carbonyl)-7-azaspiro[4.5]decan-10-yl)methyl)-4-(difluoromethyl) pyridin-2(1H)-one], for which the 50% inhibitory concentration (IC50) is below 10 nM.

In the case of `O=C(N1CC[C@@H](Cn2cnc(C3CC3)cc2=O)C2(CCCC2)C1)N1CC[C@@H](NCC(F)F)C[C@H]1c1cc(F)ccc1F` [Example 182, 6-Cyclopropyl-3-(((R)-7-((2S,4R)-4-((2,2-difluoroethyl)amino)-2-(2,5-difluorophenyl)piperidine-1-carbonyl)-7-azaspiro[4.5]decan-10-yl)methyl)pyrimidin-4(3H)-one], the IC50 fell in the range of 10 to 100 nM.

As to `N[C@@H]1CCN(C(=O)N2CC[C@@H](Cn3ccc(-c4ccccc4)cc3=O)C3(CCCC3)C2)[C@H](c2cc(F)cc(F)c2)C1` [Example 108, 1-(((R)-7-((2S,4R)-4-Amino-2-(3,5-difluorophenyl)piperidine-1-carbonyl)-7-azaspiro[4.5]decan-10-yl)methyl)-4-phenylpyridin-2(1H)-one], the IC50 was below 10 nM.

In the case of `O=C(N1CC[C@@H](Cn2ccc(-c3ccccc3)cc2=O)C2(CCCC2)C1)N1CC[C@H](NC2CS(=O)(=O)C2)C[C@H]1c1ccccc1` [Example 51, 1-(((R)-7-((2S,4S)-4-((1,1-Dioxidothietan-3-yl)amino)-2-phenylpiperidine-1-carbonyl)-7-azaspiro[4.5]decan-10-yl)methyl)-4-phenylpyridin-2(1H)-one], the IC50 lay in the range of 100 to 1000 nM.

Turning to `CN[C@@H]1CCN(C(=O)N2CC[C@@H](Cn3cnc(-c4ccccc4F)cc3=O)C3(CCCC3)C2)[C@H](c2cc(F)cc(F)c2)C1` [Example 143, 3-(((R)-7-((2S,4R)-2-(3,5-Difluorophenyl)-4-(methylamino)piperidine-1-carbonyl)-7-azaspiro[4.5]decan-10-yl)methyl)-6-(2-fluorophenyl)pyrimidin-4(3H)-one], the half-inhibitory concentration (IC50) was below 10 nM.
